According to patent publication US9120877B2, “Sulfated polysaccharide compound and the preparation and use thereof” (PARNELL TECHNOLOGIES PTY LTD, priority 2008, dated 2015):

Assay: Stability (degradation and discolouration) of injectable aqueous GXS formulation with antioxidants without refrigeration
Assay type: physicochemical
Conditions: antioxidant in GXS injectable formulation, room temperature
Text: In one arrangement, the injectable formulation includes a suitable antioxidant to enable the aqueous formulation to remain substantially stable (that is to resist discolouration and degradation) without refrigeration. Patent WO 2007/123800 claims a PPS formulation with “an antioxidant in the group metabisulfite, sodium bisulfate and ascorbate in a concentration of about 0.02% w/v to about 5.0% w/v” is stable without refrigeration. […] This finding supports a conclusion that GXS is a distinct entity to prior art PPS extracted from xylan.

SMILES	Exemplary effective concentration to achieve substantial stability of GXS injectable formulation [% by weight/volume]
O=S([O-])O.[Na+] [Sodium bisulfite ACS Reagent, Sodium bisulfite]	0.5
O=S(=O)([O-])CO.[Na+] [Sodium hydroxymethane sulfonate]	1
O=S([O-])S(=O)(=O)[O-].[Na+].[Na+] [Sodium metabisulfite]	0.5
